Legend:
Type in all cases: cell-based
[1] = tested on: Bone marrow-derived macrophages (BMM) from Rubicon−/− mice; assay: IL-10 production by Rubicon−/− bone marrow-derived macrophages co-cultured with apoptotic thymocytes (ELISA); conditions: 60 μM; Rubicon-deficient (LAP-deficient) BMM, apoptotic thymocytes 10:1, 18 hours co-culture, supernatant ELISA; versus control treatment (FIG. 1C)
Procedure: (§1) Bone marrow-derived macrophages (BMM) were generated as previously described from Rubicon−/− mice and wild-type littermates. Macrophages were co-cultured with UV-irradiated apoptotic thymocytes (at a ratio of 10 apoptotic cells:1 macrophage) in the presence or absence of PPARγ agonists Rosiglitazone (ROS, 20 or 60 μM) or Tesaglitazar (TES, 6 or 20 μM). NT indicates no treatment. After 18 hours of co-culture, supernatants were collected and analyzed for IL-10 production via ELISA (FIG. 1A). […] Thus, PPAR agonists can be effective at restoring the LAP phenotype in LAP-deficient cells.
Bone marrow-derived macrophages (BMM) were generated as previously described from Rubicon−/− mice and wild-type littermates. […] NT indicates no treatment. After 18 hours of co-culture, supernatants were collected and analyzed for IL-10 production via ELISA FIG. 1C). […] Thus, LXR agonists can be effective at restoring the LAP phenotype in LAP-deficient cells.
Bone marrow-derived macrophages (BMDMs) were generated from bone marrow progenitors obtained from littermates. Freshly prepared bone marrow cells were cultured in DMEM medium supplemented with 10% heat-inactivated FCS, 2 mM L-glutamine, 10 mM HEPES buffer, 50 μg/ml penicillin, and non-essential amino acids in the presence of 20 ng/ml rmM-CSF (Peprotech) for 6 days. […]

[2] = tested on: Bone marrow-derived macrophages (BMM) from LysM-Cre+ ATG7f/f mice; assay: IL-10 production by LysM-Cre+ ATG7f/f bone marrow-derived macrophages co-cultured with apoptotic thymocytes (ELISA); conditions: 20 μM; LysM-Cre+ ATG7f/f (LAP-deficient) BMM, apoptotic thymocytes 10:1, 18 hours co-culture, supernatant ELISA; versus control treatment (FIG. 1B)
Procedure: as §1, with “LysM-Cre− ATG7f/f” for “Rubicon−/− mice”, “LysM-Cre+ ATG7f/f mice.” for “wild-type littermates.”, “PPARβ/δ agonist GW0742 (GW,” for “PPARγ agonists Rosiglitazone (ROS, 20 or 60 μM) or Tesaglitazar (TES, 6 or”, “1B).” for “1A).”
Bone marrow-derived macrophages (BMDMs) were generated from bone marrow progenitors obtained from littermates. Freshly prepared bone marrow cells were cultured in DMEM medium supplemented with 10% heat-inactivated FCS, 2 mM L-glutamine, 10 mM HEPES buffer, 50 μg/ml penicillin, and non-essential amino acids in the presence of 20 ng/ml rmM-CSF (Peprotech) for 6 days. Nonadherent cells were removed on day 6, and adherent macrophages were detached from plates and re-plated for experimental use.
Apoptosis was induced in wild-type C57Bl/6 thymocytes by UV irradiation (20 J/m^2). Thymocytes were washed twice with PBS prior to experimental use.

[3] = tested on: bone marrow derived-macrophages from Rbcn+/+ and Rbcn−/− mice; assay: Cytokine production by Rbcn+/+ and Rbcn−/− bone marrow derived-macrophages stimulated with apoptotic thymocytes (Luminex); conditions: apoptotic thymocytes (1:10), 18 hours, supernatants
Procedure: (§2) 10^6 bone marrow derived-macrophages from Rbcn+/+ and Rbcn−/− mice were stimulated with apoptotic thymocytes (1:10) in vitro for 18 hours, in the presence of GW501516 at different concentrations (+6 μM, ++20 μM, +++60 μM). Collected supernatants were assayed for cytokine production using Luminex technology.
as §2, with “(++20” for “(+6 μM, ++20”
Supernatants were collected from macrophages fed with apoptotic thymocytes for 24 hours. Cytokines released into supernatant were analyzed by Luminex technologies (Millipore). Serum was collected from animals was analyzed by Luminex technologies (Millipore).

CC(C)CC[C@@H](O)[C@@H](C)[C@H]1CC[C@H]2[C@@H]3CC=C4C[C@@H](O)CC[C@]4(C)[C@H]3CC[C@]12C [22(R)-hydroxycholesterol]
IL-10 production [1]: increased IL-10 production

Cc1cc(SCc2sc(-c3ccc(C(F)(F)F)c(F)c3)nc2C)ccc1OCC(=O)O [GW0742]
IL-10 production [2]: increased IL-10 production

Cc1cc(SCc2sc(-c3ccc(C(F)(F)F)cc3)nc2C)ccc1OCC(=O)O [GW501516]
production of inflammatory cytokines in response to AT in vitro ([3]; 6, 20, 60 μM, Luminex (FIG. 7)): reduces production of inflammatory cytokines | IL-10 production in response to apoptotic cells in LAP-deficient macrophages ([3]; 20, 60 μM, Luminex (FIG. 8)): restores IL-10 production

From patent publication US20190145961A1, “PPAR AGONIST OR LXR AGONIST FOR USE IN THE TREATMENT OF SYSTEMIC LUPUS ERYTHEMATOSUS BY MODULATION OF LAP ACTIVITY” (Washington University, priority 2016, published 2019)
